From US8735398B2 (Bristol-Myers Squibb Company, priority 2009, dated 2014) come the findings set out here.

The assay has as its system HCV 1b genotype. The experiment in a line: HCV replicon assay (HCV-neo replicon cells, wild-type). The settings on record: HCV 1b genotype replicon. In kind it is cell-based, Hepatitis C virus. In short, it runs like this:
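HCV-neo replicon cells (wild-type) and replicon cells carrying NS5A resistance substitutions were treated with compounds; assay per O'Boyle et al. 2005, with luciferase-reporter read-out variants also used.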
On the technique in general: A replicon is a self-replicating genome or part of one, used to study replication in cells.

Setting [1] is: class symbols, read-out: EC50 Range against HCV 1b.
Setting [2] is: Hepatitis C virus, class symbols, read-out: EC50 Range against HCV 1b.
The mark [3] stands for this setting: Hepatitis C virus, read-out: EC50 1b.

pEC50: −log10 of the molar value. Read-outs that look alike come from different tables or passages of the source.

Usually pEC50 stands for the EC50 on a negative log10 scale, so that one unit is a factor of ten.

For `O=C(O)CCC(=O)N1CCC[C@H]1C(=O)Nc1ccc(-c2cnc(-c3ccc(NC(=O)[C@@H]4CCCN4C(=O)CCC(=O)O)cc3)o2)cc1` [XY-13, 4,4′-(1,3-oxazole-2,5-diylbis(4,1-phenylenecarbamoyl(2S)-2,1-pyrrolidinediyl))bis(4-oxobutanoic acid)], the pEC50 was 5.00 to 6.00 under setting [1] and 5.34 (read-out: EC50 1b).

For `O=C(Nc1ccc(-c2cnc(-c3ccc(NC(=O)[C@@H]4CCCN4C(=O)Cc4cnc[nH]4)cc3)o2)cc1)[C@@H]1CCCN1C(=O)Cc1c[nH]cn1` [XY-14, (2S)-1-(1H-imidazol-4-ylacetyl)-N-(4-(2-(4-((((2S)-1-(1H-imidazol-5-ylacetyl)-2-pyrrolidinyl)carbonyl)amino)phenyl)-1,3-oxazol-5-yl)phenyl)-2-pyrrolidinecarboxamide (non-preferred name)], under setting [1], the negative logarithm of the EC50 (pEC50) was 5.00 to 6.00.

On to `O=C(Nc1ccc(-c2cnc(-c3ccc(NC(=O)[C@@H]4CCCN4C(=O)C4CCCCC4)cc3)o2)cc1)[C@@H]1CCCN1C(=O)C1CCCCC1` [XY-15, (2S,2′S)-N,N′-(1,3-oxazole-2,5-diyldi-4,1-phenylene)bis(1-(cyclohexylcarbonyl)-2-pyrrolidinecarboxamide)], for which, under setting [2], the negative-log EC50 (pEC50) is 6.00 to 7.00.

Regarding `CC1CC1C(=O)N1CCC[C@H]1C(=O)Nc1ccc(-c2cnc(-c3ccc(NC(=O)[C@@H]4CCCN4C(=O)C4CC4C)cc3)o2)cc1` (stereo partly drawn) [XY-16, (2S,2′S)-N,N′-(1,3-oxazole-2,5-diyldi-4,1-phenylene)bis(1-((2-methylcyclopropyl)carbonyl)-2-pyrrolidinecarboxamide)], under setting [2], the negative-log EC50 (pEC50) is 6.00 to 7.00.

Regarding `CC(C)(CCl)C(=O)N1CCC[C@H]1C(=O)Nc1ccc(-c2cnc(-c3ccc(NC(=O)[C@@H]4CCCN4C(=O)C(C)(C)CCl)cc3)o2)cc1` [XY-17, (2S,2′S)-N,N′-(1,3-oxazole-2,5-diyldi-4,1-phenylene)bis(1-(3-chloro-2,2-dimethylpropanoyl)-2-pyrrolidinecarboxamide)], the negative logarithm of the EC50 (pEC50) under setting [2] was 6.00 to 7.00.

As to `O=C(Nc1ccc(-c2cnc(-c3ccc(NC(=O)[C@@H]4CCCN4C(=O)C4CCOC4)cc3)o2)cc1)[C@@H]1CCCN1C(=O)C1CCOC1` (stereo partly drawn) [XY-18, (2S,2′S)-N,N′-(1,3-oxazole-2,5-diyldi-4,1-phenylene)bis(1-(tetrahydro-3-furanylcarbonyl)-2-pyrrolidinecarboxamide)], the negative-log EC50 (pEC50) under setting [2] is 7.00 to 8.34.

For the compound `CCCC(C)(C)C(=O)N1CCC[C@H]1C(=O)Nc1ccc(-c2cnc(-c3ccc(NC(=O)[C@@H]4CCCN4C(=O)C(C)(C)CCC)cc3)o2)cc1` [XY-19, (2S,2′S)-N,N′-(1,3-oxazole-2,5-diyldi-4,1-phenylene)bis(1-(2,2-dimethylpentanoyl)-2-pyrrolidinecarboxamide)], the negative logarithm of the EC50 (pEC50) under setting [2] was 5.00 to 6.00.

As to `CC[C@@H](C(=O)N1CCC[C@H]1C(=O)Nc1ccc(-c2cnc(-c3ccc(NC(=O)[C@@H]4CCCN4C(=O)[C@H](CC)c4ccccc4)cc3)o2)cc1)c1ccccc1` [XY-20, (2S,2′S)-N,N′-(1,3-oxazole-2,5-diyldi-4,1-phenylene)bis(1-((2R)-2-phenylbutanoyl)-2-pyrrolidinecarboxamide)], the negative-log EC50 (pEC50) reads like this: under setting [2], 7.00 to 8.34; under setting [3], 7.21.

For the compound `Cn1ccnc1C(=O)N1CCC[C@H]1C(=O)Nc1ccc(-c2cnc(-c3ccc(NC(=O)[C@@H]4CCCN4C(=O)c4nccn4C)cc3)o2)cc1` [XY-21, (2S,2′S)-N,N′-(1,3-oxazole-2,5-diyldi-4,1-phenylene)bis(1-((1-methyl-1H-imidazol-2-yl)carbonyl)-2-pyrrolidinecarboxamide)], the pEC50 under setting [2] was 5.00 to 6.00.

For `O=C(Nc1ccc(-c2cnc(-c3ccc(NC(=O)[C@@H]4CCCN4C(=O)Cc4ccc(F)cc4)cc3)o2)cc1)[C@@H]1CCCN1C(=O)Cc1ccc(F)cc1` [XY-22, (2S,2′S)-N,N′-(1,3-oxazole-2,5-diyldi-4,1-phenylene)bis(1-((4-fluorophenyl)acetyl)-2-pyrrolidinecarboxamide)], the pEC50 runs as follows: under setting [2], over 8.34; under setting [3], over 8.35.

With `CC(=O)N1CCC(C(=O)N2CCC[C@H]2C(=O)Nc2ccc(-c3cnc(-c4ccc(NC(=O)[C@@H]5CCCN5C(=O)C5CCN(C(C)=O)CC5)cc4)o3)cc2)CC1` [XY-23, (2S,2′S)-N,N′-(1,3-oxazole-2,5-diyldi-4,1-phenylene)bis(1-((1-acetyl-4-piperidinyl)carbonyl)-2-pyrrolidinecarboxamide)], the pEC50 under setting [2] is 6.00 to 7.00.

Turning to `O=C(Nc1ccc(-c2cnc(-c3ccc(NC(=O)[C@@H]4CCCN4C(=O)CC4CC4)cc3)o2)cc1)[C@@H]1CCCN1C(=O)CC1CC1` [XY-24, (2S,2′S)-N,N′-(1,3-oxazole-2,5-diyldi-4,1-phenylene)bis(1-(cyclopropylacetyl)-2-pyrrolidinecarboxamide)], under setting [2], the negative-log EC50 (pEC50) was 6.00 to 7.00.

On to `O=C(Nc1ccc(-c2cnc(-c3ccc(NC(=O)[C@@H]4CCCN4C(=O)c4sccc4Cl)cc3)o2)cc1)[C@@H]1CCCN1C(=O)c1sccc1Cl` [XY-25, (2S,2′S)-N,N′-(1,3-oxazole-2,5-diyldi-4,1-phenylene)bis(1-((3-chloro-2-thienyl)carbonyl)-2-pyrrolidinecarboxamide)], for which, under setting [2], the pEC50 was 5.00 to 6.00.

For `CO[C@@H](C(=O)N1CCC[C@H]1C(=O)Nc1ccc(-c2cnc(-c3ccc(NC(=O)[C@@H]4CCCN4C(=O)[C@H](OC)c4ccccc4)cc3)o2)cc1)c1ccccc1` [XY-26, (2S,2′S)-N,N′-(1,3-oxazole-2,5-diyldi-4,1-phenylene)bis(1-((2R)-2-methoxy-2-phenylacetyl)-2-pyrrolidinecarboxamide)], the pEC50 under setting [2] is 5.00 to 6.00.

With `Cc1cc(C(=O)N2CCC[C@H]2C(=O)Nc2ccc(-c3cnc(-c4ccc(NC(=O)[C@@H]5CCCN5C(=O)c5cc(C)c(C)o5)cc4)o3)cc2)oc1C` [XY-27, (2S,2′S)-N,N′-(1,3-oxazole-2,5-diyldi-4,1-phenylene)bis(1-(4,5-dimethyl-2-furoyl)-2-pyrrolidinecarboxamide)], the pEC50 under setting [2] was 6.00 to 7.00.

With `Cc1noc(C)c1C(=O)N1CCC[C@H]1C(=O)Nc1ccc(-c2cnc(-c3ccc(NC(=O)[C@@H]4CCCN4C(=O)c4c(C)noc4C)cc3)o2)cc1` [XY-28, (2S,2′S)-N,N′-(1,3-oxazole-2,5-diyldi-4,1-phenylene)bis(1-((3,5-dimethyl-4-isoxazolyl)carbonyl)-2-pyrrolidinecarboxamide)], the negative logarithm of the EC50 (pEC50) under setting [2] was 6.00 to 7.00.

Take `COc1ccc(C(=O)N2CCC[C@H]2C(=O)Nc2ccc(-c3cnc(-c4ccc(NC(=O)[C@@H]5CCCN5C(=O)c5ccc(OC)cc5)cc4)o3)cc2)cc1` [XY-29, (2S,2′S)-N,N′-(1,3-oxazole-2,5-diyldi-4,1-phenylene)bis(1-(4-methoxybenzoyl)-2-pyrrolidinecarboxamide)]: the pEC50 under setting [2] was 6.00 to 7.00.

For the compound `Cc1ncccc1C(=O)N1CCC[C@H]1C(=O)Nc1ccc(-c2cnc(-c3ccc(NC(=O)[C@@H]4CCCN4C(=O)c4cccnc4C)cc3)o2)cc1` [XY-30, (2S,2′S)-N,N′-(1,3-oxazole-2,5-diyldi-4,1-phenylene)bis(1-((2-methyl-3-pyridinyl)carbonyl)-2-pyrrolidinecarboxamide)], under setting [2], the negative logarithm of the EC50 (pEC50) is 5.00 to 6.00.

Consider `O=C(Nc1ccc(-c2cnc(-c3ccc(NC(=O)[C@@H]4CCCN4C(=O)C4CCCO4)cc3)o2)cc1)[C@@H]1CCCN1C(=O)C1CCCO1` (stereo partly drawn) [XY-31, (2S,2′S)-N,N′-(1,3-oxazole-2,5-diyldi-4,1-phenylene)bis(1-(tetrahydro-2-furanylcarbonyl)-2-pyrrolidinecarboxamide)], for which the pEC50 reads like this: under setting [2], 7.00 to 8.34; under setting [3], 7.27.

As for `O=C(Nc1ccc(-c2cnc(-c3ccc(NC(=O)[C@@H]4CCCN4C(=O)[C@H]4CCCO4)cc3)o2)cc1)[C@@H]1CCCN1C(=O)[C@H]1CCCO1` [XY-32, (2S,2′S)-N,N′-(1,3-oxazole-2,5-diyldi-4,1-phenylene)bis(1-((2R)-tetrahydro-2-furanylcarbonyl)-2-pyrrolidinecarboxamide)], under setting [2], the pEC50 was 7.00 to 8.34.

On to `O=C(Nc1ccc(-c2cnc(-c3ccc(NC(=O)[C@@H]4CCCN4C(=O)c4ccc[nH]4)cc3)o2)cc1)[C@@H]1CCCN1C(=O)c1ccc[nH]1` [XY-33, (2S,2′S)-N,N′-(1,3-oxazole-2,5-diyldi-4,1-phenylene)bis(1-(1H-pyrrol-2-ylcarbonyl)-2-pyrrolidinecarboxamide)], for which, under setting [2], the pEC50 was 5.00 to 6.00.

On to `Cc1cc(C(=O)N2CCC[C@H]2C(=O)Nc2ccc(-c3cnc(-c4ccc(NC(=O)[C@@H]5CCCN5C(=O)c5cc(C)oc5C)cc4)o3)cc2)c(C)o1` [XY-34, (2S,2′S)-N,N′-(1,3-oxazole-2,5-diyldi-4,1-phenylene)bis(1-(2,5-dimethyl-3-furoyl)-2-pyrrolidinecarboxamide)], for which, under setting [2], the negative logarithm of the EC50 (pEC50) was 6.00 to 7.00.

As to `COc1ccccc1CC(=O)N1CCC[C@H]1C(=O)Nc1ccc(-c2cnc(-c3ccc(NC(=O)[C@@H]4CCCN4C(=O)Cc4ccccc4OC)cc3)o2)cc1` [XY-35, (2S,2′S)-N,N′-(1,3-oxazole-2,5-diyldi-4,1-phenylene)bis(1-((2-methoxyphenyl)acetyl)-2-pyrrolidinecarboxamide)], under setting [2], the pEC50 is 6.00 to 7.00.

As for `O=C(Nc1ccc(-c2cnc(-c3ccc(NC(=O)[C@@H]4CCCN4C(=O)c4ccc5c(c4)OCO5)cc3)o2)cc1)[C@@H]1CCCN1C(=O)c1ccc2c(c1)OCO2` [XY-36, (2S,2′S)-N,N′-(1,3-oxazole-2,5-diyldi-4,1-phenylene)bis(1-(1,3-benzodioxol-5-ylcarbonyl)-2-pyrrolidinecarboxamide)], under setting [2], the negative logarithm of the EC50 (pEC50) was 6.00 to 7.00.

Consider `O=C(Nc1ccc(-c2cnc(-c3ccc(NC(=O)[C@@H]4CCCN4C(=O)c4ccco4)cc3)o2)cc1)[C@@H]1CCCN1C(=O)c1ccco1` [XY-37, (2S,2′S)-N,N′-(1,3-oxazole-2,5-diyldi-4,1-phenylene)bis(1-(2-furoyl)-2-pyrrolidinecarboxamide)], for which the negative-log EC50 (pEC50) under setting [2] was 6.00 to 7.00.

Regarding `O=C(Nc1ccc(-c2cnc(-c3ccc(NC(=O)[C@@H]4CCCN4C(=O)c4ccoc4)cc3)o2)cc1)[C@@H]1CCCN1C(=O)c1ccoc1` [XY-38, (2S,2′S)-N,N′-(1,3-oxazole-2,5-diyldi-4,1-phenylene)bis(1-(3-furoyl)-2-pyrrolidinecarboxamide)], under setting [2], the negative-log EC50 (pEC50) is 7.00 to 8.34.
